In patent US12365696B2, “Small-molecule focal adhesion kinase (FAK) inhibitors” (DANA-FARBER CANCER INSTITUTE, INC., priority 2019, dated 2025):

Experiments:
Assay in all cases: KINOMEscan
Type in all cases: binding
ACVRL1 = ACVRL1 (Homo sapiens (Human), UniProt P37023); settings: ACVRL1, 10000 nM; read-out: Percent Control
ANKK1 = ANKK1 (Homo sapiens (Human), UniProt Q8NFD2); settings: ANKK1, 10000 nM; read-out: Percent Control
AURKC = AURKC (Homo sapiens (Human), UniProt Q9UQB9); settings: 10000 nM, read-out: Percent Control
CSNK1G1 = CSNK1G1 (Homo sapiens (Human), UniProt Q9HCP0); settings: CSNK1G1, 10000 nM; read-out: Percent Control
CTK = CTK (Homo sapiens (Human), UniProt P42679); settings: 10000 nM, read-out: Percent Control
EGFR(G719C) = EGFR(G719C) (Homo sapiens (Human), UniProt P00533, G719C); settings: 10000 nM, read-out: Percent Control
EGFR(L747-T751del, Sins) = EGFR(L747-T751del, Sins) (Homo sapiens (Human), UniProt P00533, DEL747-751/INS746S); settings: 10000 nM, read-out: Percent Control
Sequence of EGFR(L747-T751del, Sins) (P00533 other isoform, or with tags, fused parts or gaps, stated change not applied): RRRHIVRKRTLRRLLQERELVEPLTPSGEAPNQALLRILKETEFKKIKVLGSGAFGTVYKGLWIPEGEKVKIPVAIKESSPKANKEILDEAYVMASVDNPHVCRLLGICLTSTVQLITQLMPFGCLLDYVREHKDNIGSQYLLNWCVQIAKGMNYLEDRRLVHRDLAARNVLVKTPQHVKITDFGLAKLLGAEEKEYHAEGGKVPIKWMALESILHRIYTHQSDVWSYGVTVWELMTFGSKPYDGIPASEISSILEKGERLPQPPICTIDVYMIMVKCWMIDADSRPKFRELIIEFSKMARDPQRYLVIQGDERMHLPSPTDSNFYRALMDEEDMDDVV

EGFR(L858R) = EGFR(L858R) (Homo sapiens (Human), UniProt P00533, L858R); settings: 10000 nM, read-out: Percent Control
EGFR(S752-I759del) = EGFR(S752-I759del) (Homo sapiens (Human), UniProt P00533, DEL752-759); settings: 10000 nM, read-out: Percent Control
EPHB4 = EPHB4 (Homo sapiens (Human), UniProt P54760); settings: EPHB4, 10000 nM; read-out: Percent Control
FAK = FAK (Homo sapiens (Human), UniProt Q05397); settings: 10000 nM, read-out: Percent Control
FGR = FGR (Homo sapiens (Human), UniProt P09769); settings: 10000 nM, read-out: Percent Control
Sequence of FGR (P09769 whole entry): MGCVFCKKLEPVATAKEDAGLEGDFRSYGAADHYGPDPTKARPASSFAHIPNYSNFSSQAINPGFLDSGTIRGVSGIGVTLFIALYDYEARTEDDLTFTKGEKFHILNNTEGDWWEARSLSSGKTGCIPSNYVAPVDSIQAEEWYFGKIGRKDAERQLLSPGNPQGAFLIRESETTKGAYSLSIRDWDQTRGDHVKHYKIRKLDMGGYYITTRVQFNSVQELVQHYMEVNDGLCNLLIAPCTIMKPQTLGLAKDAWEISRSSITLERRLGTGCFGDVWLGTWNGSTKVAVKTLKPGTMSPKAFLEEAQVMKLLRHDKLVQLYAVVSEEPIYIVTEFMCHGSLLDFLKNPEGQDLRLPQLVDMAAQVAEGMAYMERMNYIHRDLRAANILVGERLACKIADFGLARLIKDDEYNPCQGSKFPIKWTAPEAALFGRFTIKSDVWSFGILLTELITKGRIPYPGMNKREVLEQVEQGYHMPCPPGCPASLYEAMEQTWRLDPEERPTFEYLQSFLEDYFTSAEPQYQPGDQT

FLT3 = FLT3 (Homo sapiens (Human), UniProt P36888); settings: FLT3, 10000 nM; read-out: Percent Control
FLT3(N841I) = FLT3(N841I) (Homo sapiens (Human), UniProt P36888, N841I); settings: 10000 nM, read-out: Percent Control
GRK7 = GRK7 (Homo sapiens (Human), UniProt Q8WTQ7); settings: GRK7, 10000 nM; read-out: Percent Control
IGF1R = IGF1R (Homo sapiens (Human), UniProt P08069); settings: 10000 nM, read-out: Percent Control
IKK-epsilon = IKK-epsilon (Homo sapiens (Human), UniProt Q14164); settings: 10000 nM, read-out: Percent Control
Sequence of IKK-epsilon (Q14164 whole entry): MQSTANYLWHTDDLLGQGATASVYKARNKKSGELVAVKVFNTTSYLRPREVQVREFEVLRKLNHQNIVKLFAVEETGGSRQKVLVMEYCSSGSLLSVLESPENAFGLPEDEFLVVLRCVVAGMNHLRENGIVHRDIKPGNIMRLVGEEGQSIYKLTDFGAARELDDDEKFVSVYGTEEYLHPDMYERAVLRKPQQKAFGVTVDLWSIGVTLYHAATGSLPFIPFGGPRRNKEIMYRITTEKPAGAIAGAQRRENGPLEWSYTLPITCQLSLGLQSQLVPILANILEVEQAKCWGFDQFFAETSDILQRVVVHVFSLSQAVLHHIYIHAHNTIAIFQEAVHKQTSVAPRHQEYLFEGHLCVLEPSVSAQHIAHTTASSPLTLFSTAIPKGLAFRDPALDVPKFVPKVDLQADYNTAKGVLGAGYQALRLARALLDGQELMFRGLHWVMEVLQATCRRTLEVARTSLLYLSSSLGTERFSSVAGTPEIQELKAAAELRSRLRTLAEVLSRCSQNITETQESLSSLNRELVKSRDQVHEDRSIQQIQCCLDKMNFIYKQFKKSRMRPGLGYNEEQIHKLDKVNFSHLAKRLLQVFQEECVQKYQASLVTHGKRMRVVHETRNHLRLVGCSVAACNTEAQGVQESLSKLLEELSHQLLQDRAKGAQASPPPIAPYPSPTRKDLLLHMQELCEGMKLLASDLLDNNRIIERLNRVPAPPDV

IRAK3 = IRAK3 (Homo sapiens (Human), UniProt Q9Y616); settings: IRAK3, 10000 nM; read-out: Percent Control
Sequence of IRAK3 (Q9Y616 whole entry): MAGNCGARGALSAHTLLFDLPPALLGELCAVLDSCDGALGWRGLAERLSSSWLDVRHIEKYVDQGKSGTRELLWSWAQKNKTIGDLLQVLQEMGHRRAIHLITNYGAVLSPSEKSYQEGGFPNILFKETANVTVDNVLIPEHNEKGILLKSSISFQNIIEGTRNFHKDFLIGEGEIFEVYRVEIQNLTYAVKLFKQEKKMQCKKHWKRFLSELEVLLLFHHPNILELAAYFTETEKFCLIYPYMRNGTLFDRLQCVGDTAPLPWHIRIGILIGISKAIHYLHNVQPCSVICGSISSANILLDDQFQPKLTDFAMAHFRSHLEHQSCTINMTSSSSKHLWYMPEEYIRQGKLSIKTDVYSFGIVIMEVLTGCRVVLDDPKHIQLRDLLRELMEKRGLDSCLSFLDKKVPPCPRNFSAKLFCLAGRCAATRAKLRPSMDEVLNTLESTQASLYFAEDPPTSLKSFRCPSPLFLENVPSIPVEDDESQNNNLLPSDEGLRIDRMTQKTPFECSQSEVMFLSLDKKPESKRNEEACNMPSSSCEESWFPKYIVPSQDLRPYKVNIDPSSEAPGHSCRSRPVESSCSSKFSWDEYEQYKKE

[1] = molecular target: JAK3(JH1domain-catalytic) (Homo sapiens (Human), UniProt P52333); settings: 10000 nM, read-out: Percent Control
Sequence of JAK3(JH1domain-catalytic) (P52333 822-1111): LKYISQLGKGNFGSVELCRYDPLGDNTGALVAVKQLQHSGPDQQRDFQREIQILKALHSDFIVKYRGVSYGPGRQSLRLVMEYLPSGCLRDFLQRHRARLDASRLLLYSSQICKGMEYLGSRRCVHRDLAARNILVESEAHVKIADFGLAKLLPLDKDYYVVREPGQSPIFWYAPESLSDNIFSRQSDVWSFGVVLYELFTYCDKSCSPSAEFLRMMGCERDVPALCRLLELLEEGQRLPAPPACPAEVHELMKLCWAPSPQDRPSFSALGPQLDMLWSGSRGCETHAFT

LATS2 = LATS2 (Homo sapiens (Human), UniProt Q9NRM7); settings: LATS2, 10000 nM; read-out: Percent Control
LKB1 = LKB1 (Homo sapiens (Human), UniProt Q15831); settings: LKB1, 10000 nM; read-out: Percent Control
Sequence of LKB1 (Q15831 whole entry): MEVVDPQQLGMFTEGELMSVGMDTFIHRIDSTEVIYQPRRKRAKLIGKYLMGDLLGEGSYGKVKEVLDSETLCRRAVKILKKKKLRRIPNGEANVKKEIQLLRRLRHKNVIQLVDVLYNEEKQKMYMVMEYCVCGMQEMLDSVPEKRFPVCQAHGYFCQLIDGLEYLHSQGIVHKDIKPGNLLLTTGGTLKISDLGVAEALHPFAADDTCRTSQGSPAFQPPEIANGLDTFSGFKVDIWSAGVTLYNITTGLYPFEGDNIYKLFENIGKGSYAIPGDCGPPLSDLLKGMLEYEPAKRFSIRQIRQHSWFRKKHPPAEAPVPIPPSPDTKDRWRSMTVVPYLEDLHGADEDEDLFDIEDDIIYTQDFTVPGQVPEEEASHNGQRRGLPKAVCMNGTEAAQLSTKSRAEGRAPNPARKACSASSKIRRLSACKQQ

LOK = LOK (Homo sapiens (Human), UniProt O94804); settings: 10000 nM, read-out: Percent Control
MEK6 = MEK6 (Homo sapiens (Human), UniProt P52564); settings: MEK6, 10000 nM; read-out: Percent Control
MET = MET (Homo sapiens (Human), UniProt P08581); settings: 10000 nM, read-out: Percent Control
NIK = NIK (Homo sapiens (Human), UniProt Q99558); settings: 10000 nM, read-out: Percent Control
PAK7 = PAK7 (Homo sapiens (Human), UniProt Q9P286); settings: PAK7, 10000 nM; read-out: Percent Control
PCTK3 = PCTK3 (Homo sapiens (Human), UniProt Q07002); settings: PCTK3, 10000 nM; read-out: Percent Control
PIK3CA(Q546K) = PIK3CA(Q546K) (Homo sapiens (Human), UniProt P42336, Q546K); settings: 10000 nM, read-out: Percent Control
Sequence of PIK3CA(Q546K) (P42336 whole entry Q546K): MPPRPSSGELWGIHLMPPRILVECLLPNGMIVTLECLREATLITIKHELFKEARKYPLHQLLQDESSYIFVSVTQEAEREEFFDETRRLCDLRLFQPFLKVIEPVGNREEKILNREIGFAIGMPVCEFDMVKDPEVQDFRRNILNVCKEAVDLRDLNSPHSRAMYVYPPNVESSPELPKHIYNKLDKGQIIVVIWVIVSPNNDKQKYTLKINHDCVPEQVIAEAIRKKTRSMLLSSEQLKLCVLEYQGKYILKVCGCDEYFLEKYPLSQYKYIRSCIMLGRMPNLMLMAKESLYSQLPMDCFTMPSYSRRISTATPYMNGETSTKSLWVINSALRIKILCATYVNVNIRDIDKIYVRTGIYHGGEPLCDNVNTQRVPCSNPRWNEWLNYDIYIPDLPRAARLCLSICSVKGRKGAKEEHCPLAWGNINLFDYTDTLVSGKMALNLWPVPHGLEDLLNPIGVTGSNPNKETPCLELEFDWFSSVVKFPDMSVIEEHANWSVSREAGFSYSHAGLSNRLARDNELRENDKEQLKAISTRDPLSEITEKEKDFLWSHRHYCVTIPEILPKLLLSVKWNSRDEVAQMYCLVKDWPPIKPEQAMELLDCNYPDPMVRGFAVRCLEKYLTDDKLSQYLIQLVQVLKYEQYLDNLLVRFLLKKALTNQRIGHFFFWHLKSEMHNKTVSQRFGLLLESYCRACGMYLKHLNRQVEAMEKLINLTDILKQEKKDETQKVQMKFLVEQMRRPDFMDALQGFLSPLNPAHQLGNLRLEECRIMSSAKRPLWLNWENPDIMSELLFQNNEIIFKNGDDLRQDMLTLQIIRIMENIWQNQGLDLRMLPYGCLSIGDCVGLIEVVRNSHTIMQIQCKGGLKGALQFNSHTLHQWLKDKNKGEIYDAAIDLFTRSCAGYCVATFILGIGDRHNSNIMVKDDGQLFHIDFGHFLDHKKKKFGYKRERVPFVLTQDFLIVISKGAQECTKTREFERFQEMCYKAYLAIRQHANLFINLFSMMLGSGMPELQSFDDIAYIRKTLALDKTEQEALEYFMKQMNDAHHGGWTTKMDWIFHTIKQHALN

PKN1 = PKN1 (Homo sapiens (Human), UniProt Q16512); settings: PKN1, 10000 nM; read-out: Percent Control
RET(M918T) = RET(M918T) (Homo sapiens (Human), UniProt P07949, M918T); settings: 10000 nM, read-out: Percent Control
[2] = molecular target: RSK1(Kin.Dom.1-N-terminal) (Homo sapiens (Human), UniProt Q15418); settings: 10000 nM, read-out: Percent Control
Sequence of RSK1(Kin.Dom.1-N-terminal) (Q15418 62-321): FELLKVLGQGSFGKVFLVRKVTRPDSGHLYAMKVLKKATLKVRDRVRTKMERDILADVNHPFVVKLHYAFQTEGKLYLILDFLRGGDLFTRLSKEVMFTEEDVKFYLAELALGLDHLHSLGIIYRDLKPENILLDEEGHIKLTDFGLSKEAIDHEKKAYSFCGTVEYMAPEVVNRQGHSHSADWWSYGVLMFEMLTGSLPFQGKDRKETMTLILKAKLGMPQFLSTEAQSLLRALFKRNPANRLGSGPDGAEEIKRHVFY

STK39 = STK39 (Homo sapiens (Human), UniProt Q9UEW8); settings: STK39, 10000 nM; read-out: Percent Control
TIE1 = TIE1 (Homo sapiens (Human), UniProt P35590); settings: TIE1, 10000 nM; read-out: Percent Control
TLK2 = TLK2 (Homo sapiens (Human), UniProt Q86UE8); settings: TLK2, 10000 nM; read-out: Percent Control
TRKB = TRKB (Homo sapiens (Human), UniProt Q16620); settings: 10000 nM, read-out: Percent Control

Sequence of ANKK1 (Q8NFD2 whole entry): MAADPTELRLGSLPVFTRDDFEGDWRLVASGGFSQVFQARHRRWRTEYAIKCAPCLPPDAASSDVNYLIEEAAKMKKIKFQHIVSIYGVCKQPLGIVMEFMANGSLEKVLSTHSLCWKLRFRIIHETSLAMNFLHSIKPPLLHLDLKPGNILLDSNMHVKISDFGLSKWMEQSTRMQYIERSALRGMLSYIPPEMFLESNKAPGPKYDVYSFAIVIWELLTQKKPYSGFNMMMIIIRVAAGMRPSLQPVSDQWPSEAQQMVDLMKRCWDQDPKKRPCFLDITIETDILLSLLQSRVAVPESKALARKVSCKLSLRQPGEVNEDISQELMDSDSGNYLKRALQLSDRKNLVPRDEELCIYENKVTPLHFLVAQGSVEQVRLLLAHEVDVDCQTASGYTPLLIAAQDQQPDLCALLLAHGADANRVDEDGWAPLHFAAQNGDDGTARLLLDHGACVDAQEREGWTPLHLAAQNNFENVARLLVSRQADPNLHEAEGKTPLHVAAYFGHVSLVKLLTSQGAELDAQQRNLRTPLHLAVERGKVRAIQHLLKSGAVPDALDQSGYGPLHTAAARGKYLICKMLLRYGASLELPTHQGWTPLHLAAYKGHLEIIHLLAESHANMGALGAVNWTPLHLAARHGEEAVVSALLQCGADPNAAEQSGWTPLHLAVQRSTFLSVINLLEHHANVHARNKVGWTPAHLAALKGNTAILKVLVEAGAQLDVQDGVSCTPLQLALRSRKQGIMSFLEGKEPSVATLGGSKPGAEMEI

Q: `COc1cc(N2CCC(N3CCN(C)CC3)CC2)ccc1Nc1ncc2c(n1)N(C)c1sc(C)nc1C(=O)N2` [Compound 3, 6-((2-methoxy-4-(4-(4-methylpiperazin-1-yl)piperidin-1-yl)phenyl)amino)-2,4-dimethyl-4,9-dihydro-10H-pyrimido[5,4-b]thiazolo[5,4-e][1,4]diazepin-10-one] was tested. Which remaining binding at 10 µM (ACVRL1) did it give?
A: 96%

Q: What about the remaining binding at 10 µM (ANKK1) of the same compound?
A: 80%

Q: And the remaining binding at 10 µM (AURKC)?
A: 95%

Q: And the remaining binding at 10 µM (CSNK1G1)?
A: 86%

Q: What about the remaining binding at 10 µM (CTK) of the same compound?
A: 98%

Q: What about the remaining binding at 10 µM (EGFR(G719C)) of the same compound?
A: 34%

Q: And the remaining binding at 10 µM (EGFR(L747-T751del, Sins))?
A: 52%

Q: And the remaining binding at 10 µM (EGFR(L858R))?
A: 79%

Q: What about the remaining binding at 10 µM (EGFR(S752-I759del)) of the same compound?
A: 47%

Q: And the remaining binding at 10 µM (EPHB4)?
A: 61%

Q: What about the remaining binding at 10 µM (FAK) of the same compound?
A: 0.55%

Q: And the remaining binding at 10 µM (FGR)?
A: 77%

Q: What about the remaining binding at 10 µM (FLT3) of the same compound?
A: 100%

Q: What about the remaining binding at 10 µM (FLT3(N841I)) of the same compound?
A: 98%

Q: And the remaining binding at 10 µM (GRK7)?
A: 97%

Q: What about the remaining binding at 10 µM (IGF1R) of the same compound?
A: 86%

Q: What about the remaining binding at 10 µM (IKK-epsilon) of the same compound?
A: 78%

Q: And the remaining binding at 10 µM (IRAK3)?
A: 80%

Q: What about the remaining binding at 10 µM [1] of the same compound?
A: 83%

Q: And the remaining binding at 10 µM (LATS2)?
A: 100%

Q: What about the remaining binding at 10 µM (LKB1) of the same compound?
A: 44%

Q: What about the remaining binding at 10 µM (LOK) of the same compound?
A: 84%

Q: What about the remaining binding at 10 µM (MEK6) of the same compound?
A: 100%

Q: What about the remaining binding at 10 µM (MET) of the same compound?
A: 92%

Q: And the remaining binding at 10 µM (NIK)?
A: 85%

Q: And the remaining binding at 10 µM (PAK7)?
A: 97%

Q: What about the remaining binding at 10 µM (PCTK3) of the same compound?
A: 90%

Q: What about the remaining binding at 10 µM (PIK3CA(Q546K)) of the same compound?
A: 100%

Q: And the remaining binding at 10 µM (PKN1)?
A: 69%

Q: What about the remaining binding at 10 µM (RET(M918T)) of the same compound?
A: 87%

Q: What about the remaining binding at 10 µM [2] of the same compound?
A: 78%

Q: What about the remaining binding at 10 µM (STK39) of the same compound?
A: 100%

Q: What about the remaining binding at 10 µM (TIE1) of the same compound?
A: 80%

Q: And the remaining binding at 10 µM (TLK2)?
A: 100%

Q: And the remaining binding at 10 µM (TRKB)?
A: 100%

Q: Which results are given for `COc1cc(N2CCC(N3CCN(C)CC3)CC2)ccc1Nc1ncc2c(n1)N(C)c1sc(C)nc1C(=O)N2C` [Compound 5, 6-((2-methoxy-4-(4-(4-methylpiperazin-1-yl)piperidin-1-yl)phenyl)amino)-2,4,9-trimethyl-4,9-dihydro-10H-pyrimido[5,4-b]thiazolo[5,4-e][1,4]diazepin-10-one]?
A: remaining binding at 10 µM (ACVRL1): 99%; remaining binding at 10 µM (ANKK1): 92%; remaining binding at 10 µM (AURKC): 100%; remaining binding at 10 µM (CSNK1G1): 97%; remaining binding at 10 µM (CTK): 96%; remaining binding at 10 µM (EGFR(G719C)): 100%; remaining binding at 10 µM (EGFR(L747-T751del, Sins)): 100%; remaining binding at 10 µM (EGFR(L858R)): 100%; remaining binding at 10 µM (EGFR(S752-I759del)): 100%; remaining binding at 10 µM (EPHB4): 100%; remaining binding at 10 µM (FAK): 0.1%; remaining binding at 10 µM (FGR): 100%; remaining binding at 10 µM (FLT3): 99%; remaining binding at 10 µM (FLT3(N841I)): 83%; remaining binding at 10 µM (GRK7): 100%; remaining binding at 10 µM (IGF1R): 40%; remaining binding at 10 µM (IKK-epsilon): 100%; remaining binding at 10 µM (IRAK3): 99%; remaining binding at 10 µM [1]: 100%; remaining binding at 10 µM (LATS2): 98%; remaining binding at 10 µM (LKB1): 100%; remaining binding at 10 µM (LOK): 99%; remaining binding at 10 µM (MEK6): 98%; remaining binding at 10 µM (MET): 97%; remaining binding at 10 µM (NIK): 93%; remaining binding at 10 µM (PAK7): 88%; remaining binding at 10 µM (PCTK3): 98%; remaining binding at 10 µM (PIK3CA(Q546K)): 94%; remaining binding at 10 µM (PKN1): 100%; remaining binding at 10 µM (RET(M918T)): 100%; remaining binding at 10 µM [2]: 83%; remaining binding at 10 µM (STK39): 77%; remaining binding at 10 µM (TIE1): 96%; remaining binding at 10 µM (TLK2): 100%; remaining binding at 10 µM (TRKB): 100%
